Results reported in patent US4177350A, “Imidazole ethyl oxyalkoxy derivatives and thio analogues thereof” (Siegfried Aktiengesellschaft, priority 1977, dated 1979).

Experiments:
[1] = system: Trichophyton mentagrophytes; test: minimum inhibitory concentration, gradient plate method, Trichophyton mentagrophytes; assay type: cell-based; conditions: 72 h, gradient 0-100 μg/ml, 10% aqueous dimethyl formamide, evaluated three days after inoculation, read-out: Minimum Inhibitory Concentration, Fungi, Tri
Excerpt: (§1) Test evaluation was made three days after inoculation.

Aspergillus niger = test: minimum inhibitory concentration, gradient plate method, Aspergillus niger; assay type: cell-based; conditions: 72 h, gradient 0-100 μg/ml, 10% aqueous dimethyl formamide, evaluated three days after inoculation, read-out: Minimum Inhibitory Concentration, Fungi, Asp
Excerpt: as §1

in vivo = conditions: mouse, po
Excerpt: The results of these tests are summarized in the following Table I together with the oral toxicity values (LD50 per os; mice, values in mg per kg of body weight) determined in the conventional manner.

Streptococcus faecalis = test: minimum inhibitory concentration, gradient plate method, Streptococcus faecalis; assay type: cell-based; conditions: Enterococcus faecalis, 72 h, gradient 0-100 μg/ml, 10% aqueous dimethyl formamide, evaluated three days after inoculation, read-out: Minimum Inhibitory Concentration, Bacteria, Str
Excerpt: as §1

[2] = system: Staphylococcus aureus haemolyticus; test: minimum inhibitory concentration, gradient plate method, Staphylococcus aureus haemolyticus; assay type: cell-based; conditions: 72 h, gradient 0-100 μg/ml, 10% aqueous dimethyl formamide, evaluated three days after inoculation, read-out: Minimum Inhibitory Concentration, Bacteria, St
Excerpt: as §1

Structure (SMILES) | MIC [1] | MIC (Aspergillus niger) | LD50 (in vivo) | MIC (Streptococcus faecalis) | MIC [2]
COCOC(Cn1ccnc1)c1ccc(Cl)cc1Cl (stereo not drawn) [Example 1, 1-β-(methoxy-methoxy-2,4-dichlorophenethyl)-imidazole nitrate] | < 10 µg/mL | < 10 µg/mL | 540 mg/kg |  | 
Clc1ccc(C(Cn2ccnc2)OCOc2ccccc2)c(Cl)c1 (stereo not drawn) [Example 2, 1-β-(phenoxymethoxy-2,4-dichlorophenethyl)-imidazole nitrate] | < 10 µg/mL | < 10 µg/mL | > 3000 mg/kg | 25 µg/mL | 10 µg/mL
Clc1ccc(C(Cn2ccnc2)OCOc2ccccc2Cl)c(Cl)c1 (stereo not drawn) [Example 3, 1-β-(2-chlorophenoxymethoxy-2,4-dichlorophenethyl)-imidazole nitrate] | < 10 µg/mL | < 10 µg/mL | > 3000 mg/kg | 15 µg/mL | < 10 µg/mL
Clc1ccc(OCOC(Cn2ccnc2)c2ccc(Cl)cc2Cl)cc1 (stereo not drawn) [Example 4, 1-β-(4-chlorophenoxymethoxy-2,4-dichlorophenethyl)-imidazole nitrate] | < 10 µg/mL | < 10 µg/mL | ~2750 mg/kg | < 10 µg/mL | < 10 µg/mL
Clc1ccc(OCOC(Cn2ccnc2)c2ccc(Cl)cc2Cl)c(Cl)c1 (stereo not drawn) [Example 5, 1-β-(2,4-dichlorophenoxymethoxy-2,4-dichlorophenethyl)-imidazole nitrate] | < 10 µg/mL | < 10 µg/mL | > 3000 mg/kg | < 10 µg/mL | < 10 µg/mL
Cc1ccc(OCOC(Cn2ccnc2)c2ccc(Cl)cc2Cl)cc1 (stereo not drawn) [Example 6, 1-β-(4-methylphenoxymethoxy-2,4-dichlorophenethyl)-imidazole nitrate] | < 10 µg/mL | < 10 µg/mL | > 3000 mg/kg | 15 µg/mL | < 10 µg/mL
COc1ccc(OCOC(Cn2ccnc2)c2ccc(Cl)cc2Cl)cc1 (stereo not drawn) [Example 7, 1-β-(4-methoxyphenoxymethoxy-2,4-dichlorophenethyl)-imidazole nitrate] | < 10 µg/mL | < 10 µg/mL | 2600 mg/kg | 30 µg/mL | 10 µg/mL
CSc1ccc(OCOC(Cn2ccnc2)c2ccc(Cl)cc2Cl)cc1 (stereo not drawn) [Example 8, 1-β-(4-methylthiophenoxymethoxy-2,4-dichlorophenethyl)-imidazole nitrate] | < 10 µg/mL | < 10 µg/mL | ~2100 mg/kg |  | 10 µg/mL
Clc1ccc(C(Cn2ccnc2)OCOc2ccc(-c3ccccc3)cc2)c(Cl)c1 (stereo not drawn) [Example 9, 1-β-(phenylphenoxymethoxy-2,4-dichlorophenethyl)-imidazole nitrate] |  |  | ~3500 mg/kg |  | 
CSCOC(Cn1ccnc1)c1ccc(Cl)cc1Cl (stereo not drawn) [Example 10, 1-β-(methylthiomethoxy-2,4-dichlorophenethyl)-imidazole nitrate] | < 10 µg/mL | < 10 µg/mL | ~950 mg/kg | 30 µg/mL | 20 µg/mL
Clc1ccc(C(Cn2ccnc2)OCSc2ccccc2)c(Cl)c1 (stereo not drawn) [Example 11, 1-β-(phenylthiomethoxy-2,4-dichlorophenethyl)-imidazole nitrate] | < 10 µg/mL | < 10 µg/mL | > 3000 mg/kg | 20 µg/mL | < 10 µg/mL
Clc1ccc(C(Cn2ccnc2)OCSc2ccc(Br)cc2)c(Cl)c1 (stereo not drawn) [Example 12, 1-β-(4-bromophenylthiomethoxy-2,4-dichlorophenethyl)-imidazole nitrate] | < 10 µg/mL | < 10 µg/mL | 12500 mg/kg | 10 µg/mL | < 10 µg/mL
